From patent US6017918A, “Phenyl glycine compounds and methods of treating atherosclerosis and restenosis” (Warner-Lambert Company, priority 1999, dated 2000)

Experiments:
[1] = system: Lp(a) production (HepG2^K17 cells); experiment: LPA3 screen: inhibition of Lp(a) production in HepG2^K17 cells, Lp(a) by ELISA; format: cell-based; details: 8 h, Lp(a) normalized for total protein, ^a = multiple tests
Protocol: The LPA3 screen is used to identify compounds that inhibit Lp(a) production. This screen employs permanently transfected HepG2 cells (HepG2^K17) that are generated using an apo(a) 17-kringle cDNA expression construct (pcDNA-AMP, In Vitrogen, Carlsbad, Calif.) in accordance with methods that are well-known in molecular biology.
HepG2^K17 cells are seeded in 96-well plates at a density of 75,000 cells per well in 0.25 mL of Dulbecco's Modified Eagle Media (DMEM) containing 10% fetal bovine serum (FBS). Seeded plates are incubated overnight in a 37° C., 5% CO2 /95% […] incubator. The media is removed, replaced with (1) fresh media, or (2) fresh media plus 0.3 to 50 μM of a compound of the present invention in 20 μL of PBS, and the plates returned to the incubator for 8 hours. After the additional 8 hours of incubation, Lp(a) is assayed in the media by ELISA. Cells are digested with 0.5N NaOH overnight and assayed for total protein. Lp(a) values are normalized for total protein content.

[2] = system: apolipoprotein(a), [apo(a)], apolipoproteinB-100, [apoB-100], coupling reaction that generates Lp(a); experiment: LPABC screen: lipoprotein(a) biochemical coupling assay, Lp(a) by ELISA; details: recombinant apo(a) + HepG2 conditioned media, 67 minutes, 37° C.; ^a = multiple tests
Description: The lipoprotein(a), [Lp(a)], biochemical coupling assay (LPABC) is used to characterize inhibitors of the apolipoprotein(a), [apo(a)], apolipoproteinB-100, [apoB-100], coupling reaction that generates Lp(a).
Protocol Conditioned media from 293 cells (ATCC CRL-1573), permanently transfected with an apo(a) 17-kringle cDNA expression construct (pcDNA-AMP, In Vitrogen, Carlsbad, Calif.) using standard molecular biology techniques, was used as a source of recombinant apo(a). The 293 cell conditioned media containing the recombinant apo(a) is diluted 1:3 with phosphate buffered saline (PBS) and 90 μL is pipetted into each well of a 96-well plate and placed into a 37° C. incubator for 10 minutes. Twenty microliters of a 0.3 to 50 μM solution of a compound of the present invention in PBS is added to the warmed plate. Ninety microliters of HepG2 (ATCC HB-8065) cell conditioned media diluted 1:3 with PBS is added to the apo(a)/compound mixture and mixed by pipetting up and down 5 times. The reaction is incubated for 67 minutes in a 37° C. incubator. A 100 μL aliquot of the reaction is removed and assayed for its Lp(a) content by an enzyme linked immunosorbent assay (ELISA).

SMILES | IC50 [1] | IC50 [2]
CCOC(=O)C(NCc1ccc(O)c(OCC)c1)c1cc(C(C)(C)C)c(O)c(C(C)(C)C)c1 (stereo not shown) [Example 39, (3,5-Di-tert-butyl-4-hydroxy-phenyl)-(3-ethoxy-4-hydroxy-benzylamino)-acetic acid ethyl ester] | > 74 µM | 59.1 µM
CCOC(=O)C(c1cc(C(C)(C)C)c(O)c(C(C)(C)C)c1)N(Cc1cccnc1)CC1CCCCC1 (stereo not shown) [Example 16, (Cyclohexylmethyl-pyridin-3-ylmethyl-amino)-(3,5-di-tert-butyl-4-hydroxy-phenyl)-acetic acid ethyl ester] | 3.7 µM | 1.48 µM
CCOC(=O)C(NCc1cccc(C(F)(F)F)c1)c1cc(C(C)(C)C)c(O)c(C(C)(C)C)c1 (stereo not shown) [Example 48, (3,5-Di-tert-butyl-4-hydroxy-phenyl)-(3-trifluoromethyl-benzylamino)-acetic acid ethyl ester] | > 74 µM | 53.9 µM
CCOC(=O)C(NCc1cc(O)c(OC)c(OC)c1)c1cc(C(C)(C)C)c(O)c(C(C)(C)C)c1 (stereo not shown) [Example 14, (3,5-Di-tert-butyl-4-hydroxy-phenyl)-(3-hydroxy-4,5-dimethoxy-benzylamino)-acetic acid ethyl ester] | 9.3 µM | 10.6 µM
CCOC(=O)C(NCc1cccc(O)c1)c1cc(C(C)(C)C)c(O)c(C(C)(C)C)c1 (stereo not shown) [Example 42, (3,5-Di-tert-butyl-4-hydroxy-phenyl)-(3-hydroxy-benzylamino)-acetic acid ethyl ester] | > 74 µM | 68.4 µM
CCOC(=O)C(NCc1ccc(Cl)cc1Cl)c1cc(C(C)(C)C)c(O)c(C(C)(C)C)c1 (stereo not shown) [Example 36, (3,5-Di-tert-butyl-4-hydroxy-phenyl)-(2,4-dichloro-benzylamino)-acetic acid ethyl ester] | > 74 µM | 47.9 µM
CCOC(=O)C(NCc1cccc([N+](=O)[O-])c1)c1cc(C(C)(C)C)c(O)c(C(C)(C)C)c1 (stereo not shown) [Example 50, (3,5-Di-tert-butyl-4-hydroxy-phenyl)-(3-nitro-benzylamino)-acetic acid ethyl ester] | > 74 µM | 46.7 µM
CCOC(=O)C(c1cc(C(C)(C)C)c(O)c(C(C)(C)C)c1)N1CCCC1 (stereo not shown) [Example 52, (3,5-Di-tert-butyl-4-hydroxy-phenyl)-(N-pyrollidinyl)-acetic acid ethyl ester] | 2.7 µM | 1.55 µM
CCOC(=O)C(NCc1cc(OC)c(OC)c(OC)c1)c1cc(C(C)(C)C)c(O)c(C(C)(C)C)c1 (stereo not shown) [Example 15, (3,5-Di-tert-butyl-4-hydroxy-phenyl)-(3,4,5-trimethoxy-benzylamino)-acetic acid ethyl ester] | 4.6 µM | 10.3 µM
CCOC(=O)C(NCc1ccsc1)c1cc(C(C)(C)C)c(O)c(C(C)(C)C)c1 (stereo not shown) [Example 46, (3,5-Di-tert-butyl-4-hydroxy-phenyl)-[(thiophen-3-ylmethyl)-amino]-acetic acid ethyl ester] | > 74 µM | 34.5 µM
CCOC(=O)C(NCc1ccccc1C(F)(F)F)c1cc(C(C)(C)C)c(O)c(C(C)(C)C)c1 (stereo not shown) [Example 47, (3,5-Di-tert-butyl-4-hydroxy-phenyl)-(2-trifluoromethyl-benzylamino)-acetic acid ethyl ester] | > 74 µM | 33.4 µM
